Data published in ChEMBL document CHEMBL3046910, “Synthesis and pharmacological evaluation of antioxidant chalcone derivatives of 2(3H)-benzoxazolones” (Med Chem Res, 2009).

Columns and labels:
Type in all cases: functional
[1] = Antioxidant activity against copper-mediated LDL oxidation assessed as oxidized LDL type E level at 3 x 10 '-5 M by FPLC method
[2] = Antioxidant activity assessed as inhibition of copper-mediated LDL oxidation by FPLC method
[3] = Antioxidant activity against copper-mediated LDL oxidation assessed as oxidized LDL type D level at 3 x 10 '-5 M by FPLC method
[4] = system: Oryctolagus cuniculus; assay: Antioxidant activity against copper-induced LDL oxidation in Watanabe Oryctolagus cuniculus (rabbit) assessed as time duration of protection at 250 mg/kg, po administered as single dose
[5] = Antioxidant activity assessed as inhibition of copper-mediated LDL oxidation at 3 x 10 '-6 M by FPLC method; conditions: TDE = time-dependent effect
[6] = Antioxidant activity against copper-mediated LDL oxidation assessed as oxidized LDL type D level at 3 x 10 '-6 M by FPLC method
[7] = Antioxidant activity against copper-mediated LDL oxidation assessed as native LDL type B level at 3 x 10 '-6 M by FPLC method
[8] = system: Oryctolagus cuniculus; assay: Antioxidant activity against copper-induced LDL oxidation in Watanabe Oryctolagus cuniculus (rabbit) assessed as time duration of protection at 50 mg/kg, po administered as single dose
[9] = Antioxidant activity against copper-mediated LDL oxidation assessed as oxidized LDL type C level at 3 x 10 '-6 M by FPLC method
[10] = Antioxidant activity assessed as inhibition of copper-mediated LDL oxidation by FPLC method relative to probucol

Compound	Activity [1] [%]	IC50 [2] [µM]	Activity [3] [%]	Time [4] [h]	Activity [5]	Activity [6] [%]	Activity [7] [%]	Activity [2]	Time [8] [h]	Activity [9] [%]	Ratio [10]
CC(C)(Sc1cc(C(C)(C)C)c(O)c(C(C)(C)C)c1)Sc1cc(C(C)(C)C)c(O)c(C(C)(C)C)c1 [PROBUCOL]	52	30	48	48	–	–	–	–	–	–	–
CC1/C(=C\c2cc(C(C)(C)C)c(O)c(C(C)(C)C)c2)C(=O)c2cc3oc(=O)n(C)c3cc21 (configuration not stated)	–	3	–	–	tde	8	84	Dose-dependent effect	48	8	10
